This note sets out measurements from patent US20240302356A1, “METHOD FOR DETERMINING A TOXICITY AND/OR GROWTH PROMOTION EFFECT OF A TREATMENT OR COMPOUND” (priority 2021, published 2024).

Each structure is given as a SMILES string. Where two headings read alike, the source gives them in different places.

Data set [1] has as its system Arabidopsis thaliana.
Data set [2] deals with A. thaliana leaves. Briefly: A. thaliana leaves cultivated in a hydroponic system, flow cytometry. It counts as in vivo, Arabidopsis thaliana. On the procedure:
To investigate whether the tipping point can also be determined using another cultivation system, A. thaliana plants were grown in a hydroponic system and exposed to a Cd concentration range after 11 days. Since results are promising for young seedlings, it was also investigated whether the invention works in plants of different ages. Therefore, individual samples of the first and the third leaf were harvested at different time points.
LEAF 1: FIG. 11 illustrates flow cytometry data of the first A. thaliana leaf exposed to a Cd range (1-10 μM Cd) after 11 days and harvested at different time points (12-21 days). Data are expressed relative to the unexposed condition (0 μM Cd=1.0). A) Endoreplication index (EI); B) Relative ploidy level; C) Relative ratios of consecutive ploidy levels; D) EIDEFENCE; and E) EIGROWTH. One-way ANOVA compared to the unexposed condition: * p<0.05. […] As known from literature, the maximum ploidy level of young leaves is lower than in mature plants. This is confirmed by the different ploidy levels observed, see FIG. 11B: leaf 1 reaches ploidy levels up to 8C after 12 days, 16C after 14 days and the highest ploidy level of 32C was only reached after 18 days. This shift in maximum ploidy level is hypothesized to influence the tipping point. Therefore, at each age, the tipping point is identified. […] This is confirmed by increased 8C/16C ratios, see FIG. 11C.
LEAF 3: FIG. 12 illustrates flow cytometry data of the third A. thaliana leaf exposed to a Cd range (1-10 μM Cd) after 11 days and harvested at different time points (14-21 days). Data are expressed relative to the unexposed condition (0 μM Cd=1.0). A) Endoreplication index (EI); B) Relative ploidy level; C) Relative ratios of consecutive ploidy levels; D) EIDEFENCE; and E) EIGROWTH. One-way ANOVA compared to the unexposed condition: * p<0.05. […] The different ploidy levels observed confirm the lower maximum ploidy level in young leaves, see FIG. 12B: leaf 3 reaches ploidy levels up to 8C after 14 days, 16C after 18 days and 32C after 21 days. At day 14, leaf 3 was focused on normal cell division as evidenced by the elevated 2C ratio.
(In general: In flow cytometry, cells or beads pass a laser one at a time.)

The subject of data set [3] is D. caryophyllus seedlings. Briefly: D. caryophyllus seedlings in 48-well microtiter plate with 1/4 MS medium, flow cytometry. Format: in vivo, Dianthus caryophyllus. To be noted: 9 days. On the procedure:
Since results are promising for young seedlings of A. thaliana, it was also investigated whether the invention works in other plant species. To investigate whether the tipping point can also be determined using another plant species, tetraploid D. caryophyllus plants (i.e., basic ploidy level is 4C) were grown in a 48-well microtiter plate with ¼ MS medium and exposed to a Cd concentration range between 0 and 50 μM Cd. FIG. 13 illustrates flow cytometry data of D. caryophyllus seedlings exposed to a Cd range (10-50 μM Cd) and harvested after 9 days. Data are expressed relative to the control condition shown by the horizontal line (1.0). A) Average number of nuclei per microliter of carrier fluid; B) Endoreplication index (EI); C) Relative ploidy level; D) Relative ratios of consecutive ploidy levels; E) EIDEFENCE; and F) EIGROWTH. One-way ANOVA compared to the unexposed condition: * p<0.05.

The test system of data set [4] is Tobacco nicotiana. Briefly: Tobacco nicotiana seedlings, flow cytometry (Experiments A1.1, A1.2). To be noted: plant seedlings, Cd, Experiment A1.1. Format: in vivo. The source says: (§1) FIGS. 14A and B illustrates from left to right: Average number of nuclei per microliter of carrier fluid; Endoreplication index (EI), for defence (EIDEFENCE) and for growth (EIGROWTH) of the analysed plant samples from different plant systems exposed to the various treatments mentioned in the table. Data are expressed relative to the first listed condition of each experiment (reference). […] In particular, the toxic effect of Cd in T. nicotiana (see Experiment A1.1) was confirmed by the present invention since EIGROWTH decreased and EIDEFENCE increased in the plant seedlings. Mitigation of this Cd-induced growth inhibition by biochar was confirmed (see Experiment A1.2). […] To optimize the growing medium for A. thaliana, different dilutions of MS medium were tested (see Experiment A1.4). […] The toxic effects of ACC (see Experiment A1.8), IAA (see Experiment A1.9) and the osmoticum PEG (simulating drought stress, see Experiment A1.10) on A. thaliana were confirmed by the present invention since EIGROWTH decreased and EIDEFENCE increased.

The subject of data set [5] is Capsicum annuum. The data set can be described thus: Capsicum annuum hypocotyls with roots, flow cytometry (Experiment A1.3). Format: in vivo.
Text: as §1

Where [6] appears, read: toxic treatments, Experiments A1.8-A1.11.
Where [7] appears, read: Cd 10-50 μM, 4C as tipping point.

Turning to `NC1(C(=O)O)CC1` [ACC], in data set [1] (setting [6]), the EIDEFENCE entry is on record as “increased” and the EIGROWTH entry is given as “decreased”.
As to `[Cd]` [Cd, cadmium], the EI entry in data set [2] (leaf 1, 1-10 μM Cd for 3 days or more (14-days-old plants or older)) is reported as “dose-dependent decrease”; in data set [2] (leaf 3, 1-10 μM Cd, FIG. 12A), “dose-dependent decrease”; in data set [3] (50 μM Cd), “decrease”. Moreover, the EIDEFENCE result was “elevated values” in data set [2] (leaf 1, 1-10 μM Cd, FIG. 11D); “elevated values” in data set [2] (leaf 3, 1-10 μM Cd, FIG. 12D); “elevated values” in data set [3] (setting [7]); “increased” in data set [4]; “significant and dose-dependent increases” in data set [1] (30 μM Cd or more, 10 days); “dose-dependent increase” in data set [1] (in vivo). Further, the EIDEFENCE entry in data set [1] (setting [6]) was “increased”. Moreover, the EIGROWTH result in data set [2] (leaf 1, 1-10 μM Cd, FIG. 11E) is given as “decreased values”; in data set [2] (leaf 3, 1-10 μM Cd, FIG. 12E), “decreased values”; in data set [3] (setting [7]) it was “decreased values”; in data set [4], “decreased”; in data set [1] (in vivo), “less pronounced dose-dependent decrease”; in data set [1] (setting [6]), “decreased”. Besides, the “EI or ploidy levels” value in data set [2] (leaf 1, one day of exposure to Cd (12-days-old plants)) is “did not show significant changes”. In addition, the nuclei concentration result in data set [3] (50 μM Cd) is given as “decrease”. The toxic effect entry in data set [5] was “could be confirmed”. Moreover, the “number of nuclei per microliter (plant growth)” value in data set [1] (Cd concentrations from 30 µM or higher, 10 days) is listed as “significant decrease”. For the same compound, the “growth (concentration of nuclei)” value in data set [1] (in vivo) is “dose-dependent growth retardation”. The “endoreplication index EI” value in data set [1] (seedlings in MS medium, Cd concentration range 0-50 μM, FIG. 10B) was “dose-dependent induction in endoreplication”.
`C=C1C[C@]23C[C@@]1(O)CC[C@H]2[C@@]12C=C[C@H](O)[C@@](C)(C(=O)O1)[C@H]2[C@@H]3C(=O)O` [GA3]: in data set [1] (Experiments A1.5-A1.7), the “growth-stimulating effect by EI indices” value is reported as “EIGROWTH increased and/or EIDEFENCE decreased”. Besides, in data set [1] (increasing concentrations, Experiment A1.7), the “concentration at which a shift towards toxicity was detected (both EI indices showing an opposite trend)” value is 3 mg I-1.
Take `O=C(O)Cc1c[nH]c2ccccc12` [IAA]: in data set [1] (setting [6]), the EIDEFENCE entry was “increased” and the EIGROWTH entry is listed as “decreased”.
